In brackets after ≈: the same amount, converted by molar mass. Like-named read-outs stand apart in the source and are kept apart here.
Columns and labels:
[1] = Solubility (physicochemical data)
[2] = tested on: Human Epidermic Cancer A431 Cells; assay: Growth inhibition against Human Epidermic Cancer A431 cells (MTT); format: cell-based; conditions: read-out: 50% growth inhibitory concentration (IC50), A431
Description: Growth Inhibition against Human Epidermic Cancer A431 Cells
Human Epidermic Cancer A431 cells were put into a 96-well microtiter plate (Nunc #167008) at 3×10^3 cells/well, and cultured in a 5% CO2 incubator at 37° C. for 24 hours. Each of 3 μg/ml GEX1 compounds was stepwise diluted. Each dilution was put into each well in an amount of 50 μl. The final concentration of the resulting suspension, in the wells of the plate was controlled to be at most 1 μg/ml. The cells were further cultured in the 5% CO2 incubator at 37° C. for 72 hours. Five hours before the termination of the incubation, MTT [3-(4,5-dimethylthiazo-2-yl)-2,5-diphenyltetrazolium bromide, Sigma Co., St. Louis, Mo.] dissolved in a medium as used for the culturing was put into each well in an amount of 50 μl, the final concentration of MTT added in each well being 1 mg/ml. After the culturing, DMSO was added to each well in an amount of 150 μl, followed by vigorous stirring with a plate mixer to completely dissolve crystals of MTT-formazan. The absorbance at 550 nm was measured by using a microplate reader MTP-32 (Corona Electric Co., Ltd.). and the cell growth inhibiting activity of each GEX1 compound tested was expressed in terms of 50% growth inhibitory concentration (IC50).

[3] = JP,A, 6-22770; cited from earlier work
[4] = A-431, A431 cells, 72 hours, MTT, absorbance at 550 nm

Q: With `COC(C(C)O)C(C)C1OC1(C)CC(C)C=CC=C(C)C1OC(CC(=O)O)CC(O)C1C` (centres unmarked) [GEX1Q1] as the compound, how does the Solubility in chloroform [1] read?
A: The Solubility in chloroform was “hardly soluble”.

Q: What about the “Solubility in dimethylsulfoxide (DMSO)” value [1] of the same compound?
A: The value was “Soluble”.

Q: And the Solubility in hexane [1]?
A: The Solubility in hexane was “hardly soluble”.

Q: And the Solubility in methanol [1]?
A: The Solubility in methanol was “Soluble”.

Q: And the IC50 [2, 4]?
A: The IC50 was 0.42 µg/mL (≈ 0.924 µM).

Q: With `COC(C(C)O)C(C)C1OC1(C)CC(C)(O)C=CC=C(C)C1OC(CC(=O)O)CCC1C` (centres unmarked) [GEX1Q2] as the compound, how does the Solubility in chloroform [1] read?
A: The Solubility in chloroform was “hardly soluble”.

Q: And the “Solubility in dimethylsulfoxide (DMSO)” value [1]?
A: The value was “Soluble”.

Q: And the Solubility in hexane [1]?
A: The Solubility in hexane was “hardly soluble”.

Q: And the Solubility in methanol [1]?
A: The Solubility in methanol was “Soluble”.

Q: What about the IC50 ([2]; A-431, 72 h) of the same compound?
A: Its IC50 is 0.23 µg/mL (≈ 0.506 µM).

Q: Which Solubility in chloroform [1] does the source give for `COC(C(C)O)C(C)C1OC1(C)CC(C)C=CC=C(C)C1OC(CC(=O)OC2OC(C(=O)O)C(O)C(O)C2O)CCC1C` (centres unmarked) [GEX1Q3] here?
A: The Solubility in chloroform was “hardly soluble”.

Q: And the “Solubility in dimethylsulfoxide (DMSO)” value [1]?
A: The value was “Soluble”.

Q: And the Solubility in hexane [1]?
A: Its Solubility in hexane is “hardly soluble”.

Q: What about the Solubility in methanol [1] of the same compound?
A: Its Solubility in methanol is “Soluble”.

Q: And the Solubility in water ([1]; water)?
A: Its Solubility in water is “Soluble”.

Q: What about the IC50 ([2]; A-431, 72 h) of the same compound?
A: The IC50 was 0.02 µg/mL (≈ 0.0325 µM).

Q: Which results are given for `COC(C(C)O)C(C)C1OC1(C)CC(C)C=CC=C(CO)C1OC(CC(=O)O)CCC1C` (centres unmarked) [GEX1Q4]?
A: Solubility in chloroform [1]: hardly soluble; Solubility in dimethylsulfoxide (DMSO) [1]: Soluble; Solubility in hexane [1]: hardly soluble; Solubility in methanol [1]: Soluble; IC50 ([2]; A-431, 72 h): 0.45 µg/mL (≈ 0.99 µM)

Q: With `CC(=CC=CC(C)CC1(C)OC1C(C)C(O)C(C)O)C1OC(CC(=O)O)CCC1C` (centres unmarked) [GEX1Q5] as the compound, how does the “Solubility in dimethylsulfoxide (DMSO)” value [1] read?
A: The value was “Soluble”.

Q: What about the Solubility in hexane [1] of the same compound?
A: Its Solubility in hexane is “hardly soluble”.

Q: And the Solubility in methanol [1]?
A: The Solubility in methanol was “Soluble”.

Q: And the IC50 [2, 4]?
A: Its IC50 is 0.0053 µg/mL (≈ 0.0125 µM).

Q: With `COC(C(C)O)C(C)C1OC1(C)CC(C)C=CC=C(C)C1OC(CC(=O)O)CCC1C` (centres unmarked) [TAN-1609] as the compound, how does the antitumor activity [3] read?
A: Its antitumor activity is “has antitumor activity”.
